Assay results taken from patent publication US4461901A, “Pyridyl containing 1,2-benzisothiazole-3-amine derivatives” (American Home Products Corporation, priority 1983, dated 1984).
Counter-ions that a name gives are not always drawn. Blank lines part the entries; values can stand above or below the compound they belong to.

Columns and labels:
[1] = cited from earlier work
[2] = target: T1, histamine H2 receptor (Cavia porcellus, UniProt P47747); experiment: guinea pig heart atrium test: inhibition of histamine-induced positive chronotropic response in the spontaneously beating right atrium; details: read-out: pA2 Value (apparent dissociation constant of the H2 antagonist) (converted)
T1 construct: from tissue; host or cells: guinea pig right atrium (isolated, spontaneously beating)
Description: The guinea pig heart atrium test is carried out as follows.
A guinea pig right atrium is suspended at 1 g tension (isometric) in the thermostatically controlled (32° C.) tissue bath (10 ml) containing oxygenated (95% O2; 5% CO2) Krebs-Haenseleit buffer (pH 7.4). The tissue is allowed to stabilize over 1 hour. Individual contractions are recorded with a force-displacement transducer through a strain gauge coupler. A control dose-response curve to histamine in the above described tissue bath is obtained after which the tissue is washed 3 times and allowed to re-equilibrate to basal rate. The test compound is added to the tissue bath at the desired final concentration. Thirty minutes after addition of the compound, a fresh histamine dose response curve is again obtained. Then the response to histamine in the presence of antagonist is compared to the histamine control response. This procedure is repeated, using fresh tissues, for each concentration of antagonist tested.

[3] = tested on: gastric acid secretion; experiment: gastric secretion in the rat, modified Shay procedure of pylorus ligation; assay type: in vivo; details: 32 mg/kg, interduodenally (i.d.), male Charles River rats, four hours after ligation
Description: The procedures for these tests and the results for some of the compounds of the invention are presented at the end of the following examples, which will serve to illustrate the present invention.
The procedure for testing gastric secretion in the rat, a modification of the procedure of Shay et al., Gastroenterology, 26, 906-13 (1954) is carried out as follows.
Male Charles River rats weighing 200-300 grams are deprived of food but not water for 24 hours prior to use. Water is, however, withheld during the experiment. The rats are weighed, anesthetized, and the pylorus ligated according to the method of Shay et al. Treatment or vehicle control is then administered interduodenally (i.d.). Rats are housed 2/cage and sacrificed with CO2 four hours after ligation. The stomachs are removed, rinsed, and contents emptied into a graduated centrifuge tube. The tubes are centrifuged for 20 minutes at 2,000 RPM and the volume of gastric juice recorded. Any samples obviously contaminated by feces, food or hemolysis are eliminated. An aliquot of each is frozen for later analysis of Na^+, K^+ and Cl^- concentration. The pH is measured and 1 ml of gastric juice is titrated with 0.1N NaOH to a pH of 7.0-7.4. Titratable acid output is calculated in microequivalents and the percent inhibition of acid output is calculated as follows: [formula]

[4] = tested on: H2 histamine receptors; details: background statement; cited from earlier work

T1 sequence (P47747 whole entry): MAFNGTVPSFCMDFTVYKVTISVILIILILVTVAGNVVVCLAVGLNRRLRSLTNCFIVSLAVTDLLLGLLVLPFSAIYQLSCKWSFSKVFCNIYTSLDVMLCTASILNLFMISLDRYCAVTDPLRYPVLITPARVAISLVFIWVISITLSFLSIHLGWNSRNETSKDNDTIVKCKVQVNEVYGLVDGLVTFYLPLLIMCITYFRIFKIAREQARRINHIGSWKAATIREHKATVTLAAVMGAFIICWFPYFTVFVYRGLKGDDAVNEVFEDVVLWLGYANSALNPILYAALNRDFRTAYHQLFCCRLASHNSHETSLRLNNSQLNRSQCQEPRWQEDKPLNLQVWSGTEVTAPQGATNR

SMILES: CN/C(=N/CCSCc1nc[nH]c1C)NC#N [Cimetidine]
- confusional states ([1]; elderly patients): tendency to cause confusional states in elderly patients
- anti-androgenic activity ([1]; patients): anti-androgenic activity
- duration of action ([1]; patients): short duration of action

- Kb [2]: 10 nM
SMILES: Nc1ncccc1OCCCNC1=NS(=O)(=O)c2ccccc21 [Example 2, N-[3-[(2-amino-3-pyridinyl)oxy]propyl]-1,2-benzisothiazol-3-amine 1,1-dioxide, hydrochloride, hemihydrate]

- Kb [2]: 10 nM
SMILES: Nc1cc(OCCCNC2=NS(=O)(=O)c3ccccc32)ccn1 [Example 3, N-[3-[(2-amino-4-pyridinyl)oxy]propyl]-1,2-benzisothiazol-3-amine 1,1 dioxide, hydrochloride, hemiethanolate]
- % Inhibition (of acid output) [3]: 57%

SMILES: CNC(=NC#N)NCCSCc1csc(N=C(N)N)n1 [tiotidine]
- selective H2 antagonist activity versus cimetidine [4]: greater activity than cimetidine
